“And” between values parts separate entries of the source, which are not always exact repeats. Equal entries are not always repeated. “Also recorded” adds a separate entry of the source. Blank lines part the entries; values can stand above or below the compound they belong to.
Experiments:
WT SOD1 [1] = molecular target: T1, WT SOD1 (Homo sapiens, UniProt P00441); experiment: SOD1 cross-linking kinetics, mass spectrometry assay (percent covalent dimer); format: biochemical; settings: for cross-linking of SOD1, result in words (FIG. 13): 1:1 ratio of SOD1 dimer:cross-linker; for % of SOD1 cross-linked after 10 min of incubation: 50 μM SOD1, 1000 μM compound (20× excess), pH 7.4, 10 min; for binding to single Cys residues (free Cys111 and Cys6) of SOD1: any sample
T1 construct: made in house; host or cells: EGy118ΔSOD1 yeast, vector YEp-351
Source text: The reaction was monitored using a mass spectrometry (MS) assay that uses a combination of increased voltage within the region of hypersonic gas expansion and brief treatment with 10% formic acid to create exclusively monomeric SOD1 or covalently cross-linked SOD1 dimer. Formic acid also quenches the reaction, transforming any reactive thiolates to unreactive thiols. As a result, if no reaction occurs, only apo SOD1 monomer is detected (FIG. 2, top). […] Given sufficient time for thiolates to be oxidized to sulfenic acid (which occurs on the order of days-weeks), even 1,2-dithiane was expected to cross-link SOD1. After 72 h of incubation with 1,2-dithiane, 11% of SOD1 had formed the expected covalent dimer (FIG. 5).
Human WT SOD1 was expressed in yeast. […] Dilution in HPLC-Grade water to 1 mM cyclic disulfide was performed prior to experimentation. As a negative control, 50 μM human WT SOD1 was incubated at 37° C. with 4% HPLC-grade methanol. At every time point, 1 μL of each sample was removed from their respective reaction vial for analysis. Samples were briefly (˜30 seconds) incubated at room temperature with 10% formic acid to remove metals from SOD1 and quench cross-linking reaction prior to mass spectrometry analysis. Samples were then diluted to 1 μM SOD1 in 50:50 acetonitrile:water, 0.1% FA and analyzed by direct infusion into a Bruker SolariX XR FT-ICR mass spectrometer. The percent dimer formation was calculated by comparing the relative dimer (31,808 Da) and monomer (15,844 Da) MaxEnt deconvoluted peak heights (Dimer/(Dimer+Monomer)). Identical methods were used in the kinetics of α-lipoic acid and β-lipoic acid. Kinetics of 1,2-dithiepane vs. 1,2-dithiepane-1-oxide were performed at a 1:1 ratio of SOD1 dimer:cross-linker.

C111S SOD1 = molecular target: T2, C111S SOD1 (Homo sapiens, UniProt P00441, C112S); experiment: Localization of cross-link using point mutated C111S SOD1 (LC-MS); format: biochemical; settings: 10 μM SOD1, 100 μM compound, overnight, room temperature
T2 construct: made in house; host or cells: EGy118ΔSOD1 yeast, vector YEp-351
Experimental: Aliquots from each of the SOD1 incubations were individually diluted ten-fold with H2O containing 0.1% formic acid and analyzed using reversed phase C18 LC-MS on a Bruker HCT Ultra ion trap. The resulting data were processed using DataAnalysis 3.4 (Bruker Daltonics). Mass spectra were averaged across the retention times corresponding to when SOD1 eluted and were deconvoluted to determine the molecular weight of the uncharged species.

WT SOD1 [2] = molecular target: T1, WT SOD1; experiment: In vitro glutathione competition assay; format: biochemical
Experimental: Purified WT SOD1 was diluted to 10 μM in 10 mM ammonium acetate, pH 7.4. […] Samples were briefly (30 seconds) incubated at room temperature with 10% formic acid to remove metals from SOD1 prior to mass spectrometry analysis. Samples were then diluted to 1 μM SOD1 in 50:50 acetonitrile:water, 0.1% FA and analyzed by direct infusion into a Bruker Solarix XR FT-ICR mass spectrometer. The percent dimer formation was calculated by comparing the relative dimer (31,808 Da) and monomer (15,844 Da) MaxEnt deconvoluted peak heights (Dimer/(Dimer+Monomer))

WT SOD1 [3] = molecular target: T1, WT SOD1; experiment: In vitro DTT competition assay; format: biochemical; settings: 1:1 cross-linker:DTT (equimolar), 24 h, 37° C.
Experimental: Purified WT SOD1 was diluted to 50 μM in 10 mM ammonium acetate, pH 7.4. […] DTT solutions were made in 100% HPLC grade H2O. DTT solution concentrations were 1 mM, 2 mM and 4 mM. Samples were left to incubate at 37° C. for 24 h. Samples were then diluted to 1 μM SOD1 in 50:50 acetonitrile:water, 0.1% FA and analyzed by direct infusion into a Bruker Solarix XR FT-ICR mass spectrometer

SOD1 in Hep G2 cells = molecular target: T3, SOD1 in Hep G2 cells (Homo sapiens, UniProt P00441); experiment: SOD1 cross-linking in Hep G2 cells, western blot; format: cell-based; settings: for cross-linking of SOD1 in cells, result in words: Hep G2 cells, increasing concentrations, compared with α-lipoic acid
T3 construct: endogenous in cells; host or cells: Hep G2
Experimental: Hep G2 cells were cultures in DMEM with 10% fetal bovine serum and penicillin/streptomycin in 96 well Costar® Corning CellBIND plate with 5% CO2 at 37° C. The cells were cultured to monolayer confluency. […] Stocks were diluted twenty-fold in 1×PBS (final DMSO 5%). Cells were treated with 200 uL of compound and incubated for 30 minutes at 37° C. 5% CO2. Cells were washed with 1×PBS and 20 μL of 6× nonreducing sample buffer was added to each well. The 96 well plate was heated to 90° C. for 10 minutes. Samplers were spun at 14000 RPM for 5 minutes in a Beckman Coulter Microfuge®18 centrifuge. Samples were run using a Bio Rad Mini-Protean electrophoresis chamber on 12% precast TGX polyacrylamide gels at 150V. After separation was complete, gels were extracted from the cassettes and incubated in an in-house transfer buffer for 10 minutes are 90° C. to ensure thorough transfer of protein bands and thorough binding of antibody (25 mM Tris, 192 mM glycine, 10 mM 2-mercaptoethanol, 0.1% SDS). Transfer was performed with a Bio Rad Trans-blot turbo transfer system using a trans-clot turbo transfer pack. Membranes were dried, blocked with 5% milk for 2 h at room temperature. Membranes were then probed with primary antibody, anti-SOD1 antibody SOD100 overnight at 4° C. Membranes are incubated with HRP-labeled secondary antibodies and visualized using ECL Western Blotting Substrate and imaged using the ChemiDoc MP.

SOD1 in HeLa cells = molecular target: T4, SOD1 in HeLa cells (Homo sapiens, UniProt P00441); experiment: SOD1 cross-linking in HeLa cells, western blot; format: cell-based; settings: EC50 for cross-linking of SOD1, HeLa cells
T4 construct: endogenous in cells; host or cells: HeLa
Experimental: HeLa cells were cultured in DMEM with 10% fetal bovine serum and penicillin/streptomycin in 24 well Costar® Corning CellBIND plate with 5% CO2 at 37° C. The cells were cultured to monolayer confluency. […] The 100 mM solution diluted to various concentrations with 1×PBS solution. 1 mL of solutions was added to the HeLa cells in the 24 well plate. […] Cells were washed 2× with 1 mL PBS. After removing the second PBS wash, the cells were then treated with 6× non-reducing SDS sample buffer and collected. The collected cell lysate was divided into two parts. One half was treated with 5% β-ME, to remove bound cyclic disulfides, as negative controls. The other half was treated with equal amount of milliQ water. All the cell lysate samples were then heated at 80° C. for 10 minutes in an Eppendorf Thermomixer. The samples were spun at 14000 rpm for 5 minutes in Beckman Coulter Microfuge centrifuge. HeLa cell extracts were separated on 12% SDS-polyacrylamide TrisHCl gels run at 80 V at room temperature. Proteins were transferred to nitrocellulose membranes for Western blotting. Monomer and covalently-linked dimer SOD1 were detected using the rabbit polyclonal anti-SOD1 antibody SOD100. Membranes are incubated with HRP-labeled secondary antibodies and visualized using ECL Western Blotting Substrate and imaged using the ChemiDoc MP.

SH-SY5Y cells = format: cell-based; settings: 24 h
Experimental: Human immortalized neuroblastoma cells (SH-SY5Y) were purchased from ATCC (Manassas, Virginia, USA). Cells were grown in Eagle's Minimum Essential Medium (EMEM) supplemented with 10% fetal bovine serum at 37° C. and 5% CO2 to >70% confluency. […] Following incubation with 1,2-dithaine-1-oxide, 22 μL of PrestoBlue® was added to each well and allowed to incubate for 10 min at 37° C. Excitation/emission was measured at 560/590 (in nm) using an Infinite® 200 plate reader (Tecan, Mannedorf, Switzerland). Cell viability was quantified relative to untreated cells.

[4] = with reduced glutathione; cited from earlier work
[5] = 50 μM SOD1, 20× excess compound
[6] = 10× compound and 100× reduced glutathione

T3 sequence (P00441 2-154 limits assumed): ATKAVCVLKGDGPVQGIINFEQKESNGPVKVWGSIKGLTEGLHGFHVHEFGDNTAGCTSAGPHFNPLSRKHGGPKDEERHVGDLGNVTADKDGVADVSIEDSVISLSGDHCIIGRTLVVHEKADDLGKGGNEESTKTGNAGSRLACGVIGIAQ
T1 sequence (P00441 2-154 limits assumed): as above
T2 sequence (P00441 2-154 C112S limits assumed): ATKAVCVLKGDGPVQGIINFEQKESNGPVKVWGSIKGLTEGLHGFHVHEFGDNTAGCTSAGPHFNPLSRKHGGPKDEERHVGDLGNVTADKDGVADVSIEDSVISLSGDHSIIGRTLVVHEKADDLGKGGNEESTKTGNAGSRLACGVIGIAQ
T4 sequence (P00441 2-154 limits assumed): as the sequence (P00441 2-154 limits assumed) above

- cross-linking of SOD1, result in words (FIG. 15) (WT SOD1 [1]): does not
Compound: C1CCCSSCC1 [1,2-dithiocane]

- % of SOD1 cross-linked after 10 min of incubation (WT SOD1 [1]; 37° C.): 0%
- cross-linking of SOD1, result in words (WT SOD1 [1]; [5]): slow cross-link formation
- % of SOD1 forming covalent dimer after three days (72 h) (WT SOD1 [1]; 50 μM SOD1, 20× excess compound, 37° C., 72 h): 11%
- binding to single Cys residues (free Cys111 and Cys6) of SOD1 (WT SOD1 [1]): no binding to single Cys residues
Compound: C1CCSSC1 [1,2-dithiane]

- cross-linking of SOD1, result in words (FIG. 13) (WT SOD1 [1]): does not
Compound: C1CCSSCC1 [1,2-dithiepane]

- cross-linking of SOD1, result in words (FIG. 15) (WT SOD1 [1]): rapid and complete cross-link of SOD1
Compound: [O-][S+]1CCCCCCS1 (stereo not shown) [1,2-dithiocane-1-oxide]

Continued, compound first:

Compound: [O-][S+]1CCCCCS1 (stereo not shown) [1,2-dithiepane-1-oxide]
- cross-linking of SOD1, result in words (FIG. 13) (WT SOD1 [1]): rapid and complete cross-link of SOD1

Compound: [O-][S+]1CCCCS1 (stereo not shown) [1,2-dithiane-1-oxide]
- % of SOD1 cross-linked after 10 min of incubation (WT SOD1 [1]; 37° C.): 95%
- cross-linking of SOD1, result in words (WT SOD1 [1]; [5]): rapid and complete dithiolate cross-linking
- binding to single Cys residues (free Cys111 and Cys6) of SOD1 (WT SOD1 [1]): no binding to single Cys residues
- overall second order rate constant of cross-linking product formation (WT SOD1 [1]; multi-concentration kinetics, protocol of Singh et al.): 250 M⁻¹ s⁻¹
- covalent dimer formation with C111S SOD1 (C111S SOD1): No cross-linking was observed; also recorded: no covalent dimer formation
- cross-linking of SOD1 in the presence of glutathione, result in words (WT SOD1 [2]; 10:1 ratio of glutathione:compound): proceeded to completion; also recorded: can efficiently cross-link SOD1
- cross-linking yield in the presence of glutathione (WT SOD1 [2]; [6]): 100%
- rate of cross-linking in the presence of glutathione (WT SOD1 [2]; [6]): decreased
- cross-linking of SOD1 in the presence of DTT, result in words (WT SOD1 [3]): proceeded to completion; also recorded: ability to cross-link the thiol pair of SOD1
- EC50 (SOD1 in Hep G2 cells; EC50 for cross-linking of SOD1, Hep G2 cells, 30 min incubation, western blot): ~5 µM and 1 to 5 µM
- EC50 (SOD1 in HeLa cells): ~5 µM and 1 to 5 µM
- concentration at which cell viability is equivalent to untreated cells, relative to EC50 (SH-SY5Y cells): 50 fold

Compound: OC1CSSCC1O (stereo not shown) [oxidized DTT]
- extrapolated half-life of thiol-disulfide exchange [4]: > 3.33 h

Compound: β-lipoic acid
- rate and extent of covalent cross-linking of SOD1 versus α-lipoic acid, in words (WT SOD1 [1]; mass spectrometry assay): Both rate and extent of covalent cross-linking of SOD1 is increased
- more SOD1 cross-linked in vitro compared to ALA (WT SOD1 [1]; mass spectrometry assay, compared to ALA): 30%
- cross-linking of SOD1 in cells, result in words (SOD1 in Hep G2 cells): cross-links SOD1 in Hep G2 cells, and does so more efficiently than the cyclic disulfide, α-lipoic acid
- cross-linking of SOD1 in cells, result in words (SOD1 in Hep G2 cells; listed as BLA): cross-linked SOD1 in cells
